Measurements from US20170252298A1, “Performance-Enhancing Nasal Irrigation” (Backed-by-Science, Inc., priority 2014, published 2017).

Test system: nasal cilia
Assay: nasal ciliary beat frequency (CBF), whole field analysis over time
Format: cell-based
Parameters: Mean CBF (WFA): unit: Hz
Description: The ATP concentration inside the cell is typically 1-10 millimolar (mM). We started with an ATP concentration of 1 mg/ml based on literature data and from testing done by Dr. James Palmer at University of Pennsylvania on ATP concentration for increasing nasal ciliary beat frequency. […] 1 mg/ml from the below charts=1 mg/ml=1 gram per liter=1/507 g/mol=2 mM. Most intracellular ATP concentrations in animals fall within the range of 0.5-10 mM. [table]

[1] = Plate 2, elapsed 0:08:10, ATP 1 mg/ml
[2] = Plate 2, elapsed 0:08:20, ATP 1 mg/ml
[3] = Plate 2, elapsed 0:08:30, ATP 1 mg/ml
[4] = Plate 2, elapsed 0:08:40, ATP 1 mg/ml
[5] = Plate 2, elapsed 0:08:50, ATP 1 mg/ml
[6] = Plate 2, elapsed 0:09:00, ATP 1 mg/ml
[7] = Plate 2, elapsed 0:09:10, ATP 1 mg/ml
[8] = Plate 2, elapsed 0:09:20, ATP 1 mg/ml
[9] = Plate 2, elapsed 0:09:30, ATP 1 mg/ml
[10] = Plate 2, elapsed 0:09:40, ATP 1 mg/ml
[11] = Plate 2, elapsed 0:09:50, ATP 1 mg/ml
[12] = Plate 2, elapsed 0:10:00, ATP 1 mg/ml
[13] = Plate 2, elapsed 0:10:10, ATP 1 mg/ml
[14] = Plate 2, elapsed 0:10:20, ATP 1 mg/ml
[15] = Plate 2, elapsed 0:10:30, ATP 1 mg/ml
[16] = Plate 2, elapsed 0:10:40, ATP 1 mg/ml
[17] = Plate 2, elapsed 0:10:50, ATP 1 mg/ml
[18] = Plate 2, elapsed 0:11:00, ATP 1 mg/ml
[19] = Plate 2, elapsed 0:11:10, ATP 1 mg/ml
[20] = Plate 2, elapsed 0:15:10, ATP 1 mg/ml
[21] = Plate 2, elapsed 0:15:20, ATP 1 mg/ml
[22] = Plate 2, elapsed 0:15:30, ATP 1 mg/ml
[23] = Plate 2, elapsed 0:15:40, ATP 1 mg/ml
[24] = Plate 2, elapsed 0:15:50, ATP 1 mg/ml
[25] = Plate 2, elapsed 0:16:00, ATP 1 mg/ml
[26] = Plate 2, elapsed 0:16:10, ATP 1 mg/ml
[27] = Plate 2, elapsed 0:16:20, ATP 1 mg/ml
[28] = Plate 2, elapsed 0:16:30, ATP 1 mg/ml
[29] = Plate 2, elapsed 0:16:40, ATP 1 mg/ml
[30] = Plate 2, elapsed 0:16:50, ATP 1 mg/ml
[31] = Plate 2, elapsed 0:17:00, ATP 1 mg/ml
[32] = Plate 2, elapsed 0:17:10, ATP 1 mg/ml
[33] = Plate 2, elapsed 0:17:20, ATP 1 mg/ml
[34] = Plate 2, elapsed 0:17:30, ATP 1 mg/ml
[35] = Plate 2, elapsed 0:17:40, ATP 1 mg/ml
[36] = Plate 2, elapsed 0:17:50, ATP 1 mg/ml
[37] = Plate 2, elapsed 0:18:00, ATP 1 mg/ml
[38] = Plate 2, elapsed 0:18:10, ATP 1 mg/ml
[39] = Plate 2, elapsed 0:18:20, ATP 1 mg/ml
[40] = Plate 2, elapsed 0:18:30, ATP 1 mg/ml
[41] = Plate 2, elapsed 0:18:40, ATP 1 mg/ml
[42] = Plate 2, elapsed 0:18:50, ATP 1 mg/ml
[43] = Plate 2, elapsed 0:19:00, ATP 1 mg/ml
[44] = Plate 2, elapsed 0:19:10, ATP 1 mg/ml
[45] = Plate 2, elapsed 0:19:20, ATP 1 mg/ml
[46] = Plate 2, elapsed 0:19:30, ATP 1 mg/ml
[47] = Plate 2, elapsed 0:19:40, ATP 1 mg/ml
[48] = Plate 2, elapsed 0:19:50, ATP 1 mg/ml
[49] = Plate 2, elapsed 0:20:00, ATP 1 mg/ml

Nc1ncnc2c1ncn2[C@@H]1O[C@H](COP(=O)(O)OP(=O)(O)OP(=O)(O)O)[C@@H](O)[C@H]1O [ATP, adenosine triphosphate]
Active Area [1]: 37.97%
Mean CBF (WFA) [1]: 8.3
Active Area [2]: 38.66%
Mean CBF (WFA) [2]: 8.29
Active Area [3]: 39%
Mean CBF (WFA) [3]: 8.27
Active Area [4]: 36.32%
Mean CBF (WFA) [4]: 8.33
Active Area [5]: 39.05%
Mean CBF (WFA) [5]: 8.36
Active Area [6]: 37.12%
Mean CBF (WFA) [6]: 8.36
Active Area [7]: 38.83%
Mean CBF (WFA) [7]: 8.31
Active Area [8]: 38.39%
Mean CBF (WFA) [8]: 8.31
Active Area [9]: 37.54%
Mean CBF (WFA) [9]: 8.37
Active Area [10]: 36.11%
Mean CBF (WFA) [10]: 8.42
Active Area [11]: 35.79%
Mean CBF (WFA) [11]: 8.4
Active Area [12]: 36.58%
Mean CBF (WFA) [12]: 8.44
Active Area [13]: 36.77%
Mean CBF (WFA) [13]: 8.49
Active Area [14]: 37.58%
Mean CBF (WFA) [14]: 8.39
Active Area [15]: 37.33%
Mean CBF (WFA) [15]: 8.41
Active Area [16]: 37.82%
Mean CBF (WFA) [16]: 8.41
Active Area [17]: 35.58%
Mean CBF (WFA) [17]: 8.37
Active Area [18]: 38.06%
Mean CBF (WFA) [18]: 8.43
Active Area [19]: 38.67%
Mean CBF (WFA) [19]: 8.42
Active Area [20]: 41.31%
Mean CBF (WFA) [20]: 8.44
Active Area [21]: 41.96%
Mean CBF (WFA) [21]: 8.48
Active Area [22]: 39.32%
Mean CBF (WFA) [22]: 8.43
Active Area [23]: 39.9%
Mean CBF (WFA) [23]: 8.44
Active Area [24]: 40.84%
Mean CBF (WFA) [24]: 8.41
Active Area [25]: 41.99%
Mean CBF (WFA) [25]: 8.36
Active Area [26]: 42.7%
Mean CBF (WFA) [26]: 8.37
Active Area [27]: 43.14%
Mean CBF (WFA) [27]: 8.39
Active Area [28]: 42.52%
Mean CBF (WFA) [28]: 8.36
Active Area [29]: 42.09%
Mean CBF (WFA) [29]: 8.38
Active Area [30]: 42.85%
Mean CBF (WFA) [30]: 8.33
Active Area [31]: 38.98%
Mean CBF (WFA) [31]: 8.32
Active Area [32]: 41.85%
Mean CBF (WFA) [32]: 8.27
Active Area [33]: 41.7%
Mean CBF (WFA) [33]: 8.24
Active Area [34]: 42.78%
Mean CBF (WFA) [34]: 8.29
Active Area [35]: 40.85%
Mean CBF (WFA) [35]: 8.32
Active Area [36]: 42.27%
Mean CBF (WFA) [36]: 8.27
Active Area [37]: 38.92%
Mean CBF (WFA) [37]: 8.27
Active Area [38]: 40.18%
Mean CBF (WFA) [38]: 8.29
Active Area [39]: 42.69%
Mean CBF (WFA) [39]: 8.27
Active Area [40]: 42.91%
Mean CBF (WFA) [40]: 8.27
Active Area [41]: 41.71%
Mean CBF (WFA) [41]: 8.24
Active Area [42]: 42.85%
Mean CBF (WFA) [42]: 8.28
Active Area [43]: 43.3%
Mean CBF (WFA) [43]: 8.24
Active Area [44]: 42.12%
Mean CBF (WFA) [44]: 8.22
Active Area [45]: 42.33%
Mean CBF (WFA) [45]: 8.25
Active Area [46]: 43.77%
Mean CBF (WFA) [46]: 8.23
Active Area [47]: 44.6%
Mean CBF (WFA) [47]: 8.25
Active Area [48]: 43.27%
Mean CBF (WFA) [48]: 8.24
Active Area [49]: 43.87%
Mean CBF (WFA) [49]: 8.26
ATP concentration sufficient to give an increase in ciliary beat frequency (testing by Dr. James Palmer, University of Pennsylvania): 1 mg/mL
